Source: PubChem BioAssay (NCI)
Several values for one entry are separate records, joined by “and”; a condition that tells them apart may be missing. Equal values may be shown once.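 Five compound concentrations were applied to cells in 96-well plates for 48 hours; endpoints were derived by simple linear interpolation of the resulting dose-response curve. GI50 is the concentration that inhibits growth by half. The concentration for full growth arrest is given as TGI.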

system: SNB-75 CNS; assay: inhibition of tumour cell growth, NCI panel, 48 h

Structure (SMILES) | TGI | GI50
O=C(CCCn1ccnc1[N+](=O)[O-])NCCn1cncc1[N+](=O)[O-] | > 100 µM | 
Cn1cc(C2=C(c3ccc4ccccc4c3)C(=O)NC2=O)c2ccccc21 | > 25 µM | 7.47 µM
O=C(OCc1ccc2cccc(O)c2n1)N1CCN(C(=O)c2cc3cc(F)ccc3[nH]2)CC1 | 2.24 µM | 1.02 µM
C[As](C)SC1OC(CO)C(O)C1O (stereo not drawn) | 2.62 µM | 0.912 µM
Cn1c(=O)c2c(nc(Nc3cc(=O)[nH]c(=O)[nH]3)n2Cc2ccccc2)n(C)c1=O | > 100 µM | 12.5 µM
COc1ccc2c(c1)CCC1C2CC[C@@]2(C)C1CC1=CC(COC(C)=O)C3C(=O)c4ccccc4C(=O)C3C12 (stereo partly drawn) | > 100 µM | 36.3 µM
C=C(F)C(=O)N1CCN(c2nc(OC[C@@H]3CCCN3C)nc3c2CCN(c2cccc4cccc(Cl)c24)C3)C[C@@H]1CC#N | 2.67 µM | 1.17 µM
O=C1CCCC/C(=C/c2ccccc2)N1 | > 100 µM | 
CC/C(=C(/c1ccc(OCCN(C)C)cc1)c1ccc(OC(=O)CCCCC(=O)c2c(C)[nH]c(/C=C3\N=C(c4ccc[nH]4)C=C3OC)c2C)cc1)c1ccccc1 | 23.2 µM | 8.17 µM
CC[C@]12C=CCN3CC[C@@]4(c5ccc(OC)cc5N(C)[C@H]4[C@@](O)(C(=O)OC)[C@@H]1OC(=O)CCC[P+](c1ccccc1)(c1ccccc1)c1ccccc1)[C@@H]32 | 3.58 µM and 1.23 µM | 0.554 µM and 0.218 µM
CC(=O)OC1Oc2ccccc2-c2oc(=O)c(-c3cc(=O)oc4cc(O)ccc34)cc21 (stereo not drawn) | 72.2 µM | 22.3 µM
CC(C)(C)C(=O)OCOP(=O)(OCOC(=O)C(C)(C)C)C1CCCN(O)C1=O (stereo not drawn) | 28.6 µM | 1.43 µM
CC(SC(C)C(=O)N/N=C/c1cccc(Cl)c1)C(=O)N/N=C\c1cccc(Cl)c1 (stereo not drawn) | 19.5 µM | 4.28 µM
CC(=O)O.CC(=O)O.CC(=O)O.CC(=O)O.CC(=O)O.CC(=O)O.O.[Ti].[Ti] | > 100 µM | 56 µM
COC(=O)C1=C(c2ccc3c(c2)OCO3)O[C@H](c2cc(OC)c(OC)c(OC)c2)[C@H]1COC(C)=O | > 100 µM | 
Cc1ccc(Cl)cc1Nc1nc(C(F)(F)F)ccc1C(=O)N1CCN(c2ccc(F)cc2)CC1 | 14.2 µM | 
CCCCc1c(OC)cc(O)c2c1C(=O)c1[nH]c(C(=O)O)c(O)c(=O)c1C2=O | 27.5 µM | 
O=C(Nc1ccc(OS(=O)(=O)c2ccccc2)cc1)C12CC3CC(CC(C3)C1)C2 | > 100 µM | 7.16 µM
COC(=O)c1cc2c3ccccc3n(C(C)=O)c2cn1 | > 100 µM | 
O=S(=O)([O-])c1ccc2c(c1)-c1nc-2nc2[n-]c(nc3nc(nc4[n-]c(n1)c1ccc(S(=O)(=O)[O-])cc41)-c1cc(S(=O)(=O)[O-])ccc1-3)c1ccc(S(=O)(=O)[O-])cc21.[Cu+2].[Na+] | > 100 µM | > 67.3 µM
CCN1CCN(c2ccc(Nc3cc(N(C)C(=O)Nc4c(Cl)c(OC)cc(OC)c4Cl)ncn3)cc2)CC1 | 22.2 µM | 5.23 µM
CC(C)c1ccc(Nc2ccc3c(OCCCN4CCN(C)CC4)cccc3n2)cc1 | 30 µM | 12.8 µM
CCCCOC(=O)C1C(c2ccc(Cl)cc2)NC(c2ccc(Cl)cc2)C(C(=O)OCCCC)S1(=O)=O (stereo not drawn) | > 100 µM | 
Cc1cc(Br)cc(C)c1NC(=O)C(=O)C(C(=O)c1ccc2ccccc2c1)C1OC(=O)c2ccccc21 (stereo not drawn) | 43.9 µM | 
COc1ccc2c(c1)C(C)Cc1c(Cl)ncnc1N2C (stereo not drawn) | > 54.6 µM | 0.557 µM
CC(C)=C[C@@H]1C[C@H](C)[C@H]2CC[C@H](C)C3=C2[C@](O)(OC3=O)[C@]1(C)O | > 100 µM | > 100 µM
O=C1c2ccccc2C(=O)C1(Cl)C1(S(=O)(=O)O)c2ccccc2-c2ccccc21 | > 100 µM | 

system: RPMI-8226 leukemia; assay: inhibition of tumour cell growth, NCI panel, 48 h

Structure (SMILES) | TGI | GI50
O=C(CCCn1ccnc1[N+](=O)[O-])NCCn1cncc1[N+](=O)[O-] | > 100 µM | 
Cn1cc(C2=C(c3ccc4ccccc4c3)C(=O)NC2=O)c2ccccc21 | > 25 µM | > 23.8 µM
O=C(OCc1ccc2cccc(O)c2n1)N1CCN(C(=O)c2cc3cc(F)ccc3[nH]2)CC1 | 0.787 µM | 0.251 µM
C[As](C)SC1OC(CO)C(O)C1O (stereo not drawn) | 0.342 µM | 0.1 µM
Cn1c(=O)c2c(nc(Nc3cc(=O)[nH]c(=O)[nH]3)n2Cc2ccccc2)n(C)c1=O | > 100 µM | 15.9 µM
COc1ccc2c(c1)CCC1C2CC[C@@]2(C)C1CC1=CC(COC(C)=O)C3C(=O)c4ccccc4C(=O)C3C12 (stereo partly drawn) | > 100 µM | 51.2 µM
C=C(F)C(=O)N1CCN(c2nc(OC[C@@H]3CCCN3C)nc3c2CCN(c2cccc4cccc(Cl)c24)C3)C[C@@H]1CC#N | 3.45 µM | 1.24 µM
O=C1CCCC/C(=C/c2ccccc2)N1 | > 100 µM | 
CC/C(=C(/c1ccc(OCCN(C)C)cc1)c1ccc(OC(=O)CCCCC(=O)c2c(C)[nH]c(/C=C3\N=C(c4ccc[nH]4)C=C3OC)c2C)cc1)c1ccccc1 | 18.8 µM | 3.17 µM
CC[C@]12C=CCN3CC[C@@]4(c5ccc(OC)cc5N(C)[C@H]4[C@@](O)(C(=O)OC)[C@@H]1OC(=O)CCC[P+](c1ccccc1)(c1ccccc1)c1ccccc1)[C@@H]32 | 1.29 µM and 0.597 µM | 0.118 µM and 0.164 µM
CC(=O)OC1Oc2ccccc2-c2oc(=O)c(-c3cc(=O)oc4cc(O)ccc34)cc21 (stereo not drawn) | 44.1 µM | 13.1 µM
CC(C)(C)C(=O)OCOP(=O)(OCOC(=O)C(C)(C)C)C1CCCN(O)C1=O (stereo not drawn) | 1.12 µM | 0.308 µM
CC(SC(C)C(=O)N/N=C/c1cccc(Cl)c1)C(=O)N/N=C\c1cccc(Cl)c1 (stereo not drawn) | > 100 µM | 17.9 µM
CC(=O)O.CC(=O)O.CC(=O)O.CC(=O)O.CC(=O)O.CC(=O)O.O.[Ti].[Ti] | > 100 µM | > 100 µM
COC(=O)C1=C(c2ccc3c(c2)OCO3)O[C@H](c2cc(OC)c(OC)c(OC)c2)[C@H]1COC(C)=O | > 100 µM | 
Cc1ccc(Cl)cc1Nc1nc(C(F)(F)F)ccc1C(=O)N1CCN(c2ccc(F)cc2)CC1 | 52.6 µM | 15.5 µM
CCCCc1c(OC)cc(O)c2c1C(=O)c1[nH]c(C(=O)O)c(O)c(=O)c1C2=O | > 100 µM | 
O=C(Nc1ccc(OS(=O)(=O)c2ccccc2)cc1)C12CC3CC(CC(C3)C1)C2 | > 100 µM | 2.15 µM
COC(=O)c1cc2c3ccccc3n(C(C)=O)c2cn1 | > 100 µM | 
O=S(=O)([O-])c1ccc2c(c1)-c1nc-2nc2[n-]c(nc3nc(nc4[n-]c(n1)c1ccc(S(=O)(=O)[O-])cc41)-c1cc(S(=O)(=O)[O-])ccc1-3)c1ccc(S(=O)(=O)[O-])cc21.[Cu+2].[Na+] | > 74.3 µM | > 56.4 µM
CCN1CCN(c2ccc(Nc3cc(N(C)C(=O)Nc4c(Cl)c(OC)cc(OC)c4Cl)ncn3)cc2)CC1 | 4.71 µM | 1.76 µM
CC(C)c1ccc(Nc2ccc3c(OCCCN4CCN(C)CC4)cccc3n2)cc1 | 14.3 µM | 3.39 µM
CCCCOC(=O)C1C(c2ccc(Cl)cc2)NC(c2ccc(Cl)cc2)C(C(=O)OCCCC)S1(=O)=O (stereo not drawn) | > 100 µM | 
Cc1cc(Br)cc(C)c1NC(=O)C(=O)C(C(=O)c1ccc2ccccc2c1)C1OC(=O)c2ccccc21 (stereo not drawn) | > 80.5 µM | 
COc1ccc2c(c1)C(C)Cc1c(Cl)ncnc1N2C (stereo not drawn) | 16 µM | 0.629 µM
CC(C)=C[C@@H]1C[C@H](C)[C@H]2CC[C@H](C)C3=C2[C@](O)(OC3=O)[C@]1(C)O | > 100 µM | > 100 µM
O=C1c2ccccc2C(=O)C1(Cl)C1(S(=O)(=O)O)c2ccccc2-c2ccccc21 | > 100 µM | 

system: 786-0 renal; assay: inhibition of tumour cell growth, NCI panel, 48 h

Structure (SMILES) | TGI | GI50
O=C(CCCn1ccnc1[N+](=O)[O-])NCCn1cncc1[N+](=O)[O-] | > 100 µM | 
Cn1cc(C2=C(c3ccc4ccccc4c3)C(=O)NC2=O)c2ccccc21 | > 25 µM | > 25 µM
O=C(OCc1ccc2cccc(O)c2n1)N1CCN(C(=O)c2cc3cc(F)ccc3[nH]2)CC1 | 2.82 µM | 1.42 µM
C[As](C)SC1OC(CO)C(O)C1O (stereo not drawn) | 0.655 µM | 0.174 µM
Cn1c(=O)c2c(nc(Nc3cc(=O)[nH]c(=O)[nH]3)n2Cc2ccccc2)n(C)c1=O | > 100 µM | > 100 µM
COc1ccc2c(c1)CCC1C2CC[C@@]2(C)C1CC1=CC(COC(C)=O)C3C(=O)c4ccccc4C(=O)C3C12 (stereo partly drawn) | > 100 µM | > 100 µM
C=C(F)C(=O)N1CCN(c2nc(OC[C@@H]3CCCN3C)nc3c2CCN(c2cccc4cccc(Cl)c24)C3)C[C@@H]1CC#N | 2.09 µM | 0.769 µM
O=C1CCCC/C(=C/c2ccccc2)N1 | > 100 µM | 
CC/C(=C(/c1ccc(OCCN(C)C)cc1)c1ccc(OC(=O)CCCCC(=O)c2c(C)[nH]c(/C=C3\N=C(c4ccc[nH]4)C=C3OC)c2C)cc1)c1ccccc1 | 19.2 µM | 4.77 µM
CC[C@]12C=CCN3CC[C@@]4(c5ccc(OC)cc5N(C)[C@H]4[C@@](O)(C(=O)OC)[C@@H]1OC(=O)CCC[P+](c1ccccc1)(c1ccccc1)c1ccccc1)[C@@H]32 | 8.03 µM | 2.13 µM
CC(=O)OC1Oc2ccccc2-c2oc(=O)c(-c3cc(=O)oc4cc(O)ccc34)cc21 (stereo not drawn) | 38.4 µM | 16.2 µM
CC(C)(C)C(=O)OCOP(=O)(OCOC(=O)C(C)(C)C)C1CCCN(O)C1=O (stereo not drawn) | 18.1 µM | 0.35 µM
